# Measurements as given in patent publication US11421026B2, “Antibodies that bind human cannabinoid 1 (CB1) receptor” (BIRD ROCK BIO, Inc., priority 2015, dated 2022).
# Tests used:
# [1] = system: Daudi cells; test: ADCC assay; type: cell-based
# Method: For ADCC assay, Daudi target cell concentration was adjusted to 12.5×10^4 cells/mL with ADCC medium. 80 μL of cell suspension (1×10^4 viable cells) was added to each well of a round-bottom 96-well plate. Twenty μL of antibody, serially diluted in ADCC medium, was dispensed to each well in triplicate. […] The plate was incubated at 22-25° C. for 30 minutes. PBMC concentration was adjusted with ADCC medium so that by adding […] of PBMC cells to the target cells, the Effector: Target cell ratio were 25:1 and 50:1, respectively. The plate was centrifuged at 250×g for 4 minutes and then incubated at 37° C. 45 minutes prior to harvesting the supernatant, 20 μL of lysis solution from the CytoTox 96 kit (Promega) was added to maximum lysis control wells. After a 5 hour incubation, the plate was centrifuged at 250×g for 4 minutes. 50 μL of supernatant from each well was transfer to a clean flat-bottom 96 well assay plate. 50 μL of substrate from CytoTox 96 kit (Promega) was added to each well and mixed for 30 seconds. The plate was incubated at room temperature for 30 minutes before 50 μL of stop solution was added to each well and mixed for 30 seconds. The absorbance was read at 490 nm. For data analysis: the % lysis is calculated using GraphPad Prism 5.0 to generate the IC50, as follows: […]
# [2] = system: Daudi cells; test: CDC assay; type: cell-based; details: 10% complement
# Method: For CDC assay Daudi target cells were harvested and cell concentration was adjusted to 80×10^4 cells/mL with cell culture medium. To a flat-bottom 96-well white plate, 25 μL/well of cells was added. Then, 12.5 μL/well of P1C4, Rituximab, Anti-HEL-hIgG1, and Anti-HEL-hIgG2, serially diluted in ADCC medium, were added to each well in duplicate. […] The plates were incubated in the hood for 15 minutes. Human complement, diluted with ADCC medium, was added to the plates containing cells at 12.5 μL/well to reach a final concentration of 10%. For the maximum lysis wells, 5 μL of lysis solution was added. The final volume of all the wells was adjusted to 50 μL with ADCC medium. The plates were incubated at 37° C. for 2 hours before 50 μL/well of CTG solution was added to the cells. The plates were shaken on a microplate shaker for 2 minutes at a speed of 200 and then incubated at room temperature for 10 minutes. The luminescence signal was red with Envision. For data analysis, % cytotoxicity and IC50 was calculated using GraphPad Prism 5.0 as follows: […]
substance,measurement,setting,value
Rituximab: positive control antibody in ADCC and CDC assays,ADCC IC50,[1]; 25:1 E/T ratio,0.92 ng/mL
same,ADCC IC50,[1]; 50:1 E/T ratio,1.19 ng/mL
same,CDC IC50,[2],399 ng/mL
